Reference: US20100222332A1, “PYRAZOLO-PYRAZINES DERIVATIVES USED AS G PROTEIN INHIBITORS” (Ipsen Pharma S.A.S., priority 2007, published 2010)
Structures can show the parent of a compound that is named as a salt. Where two headings read alike, the source gives them in different places. One block for each molecule: values may come before it.

Columns and labels:
[1] = tested on: A2058 (human melanoma cancer cells); assay: Anti-proliferative activity on A2058 cell line (WST1 colorimetric test); format: cell-based; details: treated for 96 hours, read-out: IC50 on the cell proliferation of the A2058 lines
Protocol: (§1) By way of example, the effect of a treatment on three human cell lines DU145, LNCaP and A2058 with the compounds of the examples described previously will be studied. The cell lines DU145 and LNCaP (human prostate cancer cells) and A2058 (human melanoma cancer cells) were acquired from the American Tissue Culture Collection (Rockville, Md., USA). The cells placed in 80 μl of Dulbecco's Modified Eagle medium (Gibco-Brl, Cergy-Pontoise, France) completed with 10% foetal calf serum inactivated by heating (Gibco-Brl, Cergy-Pontoise, France), 50000 units/l of penicillin and 50 mg/l streptomycin (Gibco-Brl, Cergy-Pontoise, France), and 2 mM of glutamin (Gibco-Brl, Cergy-Pontoise, France) were seeded on a 96-well plate on day 0. The cells were treated on day 1 for 96 hours with increasing concentrations of each of the compounds to be tested up to 10 μM. At the end of this period, the quantification of the cell proliferation is evaluated by a colorimetric test based on the cleavage of the tetrazolium salt WST1 by mitochondrial dehydrogenases in the viable cells leading to the formation of formazan (Boehringer Mannheim, Meylan, France). These tests are carried out in duplicate with 8 determinations per tested concentration. For each compound to be tested, the values included in the linear part of the sigmoid were retained for linear regression analysis and used in order to estimate the inhibitory concentration IC50. The products are solubilized in dimethylsulphoxide (DMSO) at 10^−2 M and finally used in culture with 0.1% DMSO.

[2] = tested on: LNCaP (human prostate cancer cells); assay: Anti-proliferative activity on LNCaP cell line (WST1 colorimetric test); format: cell-based; details: treated for 96 hours, read-out: IC50 on the cell proliferation of the LNCaP lines
Protocol: as §1

[3] = tested on: DU145 (human prostate cancer cells); assay: Anti-proliferative activity on DU145 cell line (WST1 colorimetric test); format: cell-based; details: DU-145, treated for 96 hours, read-out: IC50 on the cell proliferation of the DU145 lines
Protocol: as §1

SMILES: N[C@@H](CSSC[C@H](N)C(=O)N1CCn2nc(-c3ccco3)cc2C1CCc1ccccc1)C(=O)N1CCn2nc(-c3ccco3)cc2C1CCc1ccccc1 (mixture of isomers) [Example 19, (2R)-3-({(2R)-2-amino-3-[(4RS)-2-(2-furyl)-4-(2-phenylethyl)-6,7-dihydropyrazolo[1,5-a]pyrazin-5(4H)-yl]-3-oxopropyl}dithio)-1-[(4RS)-2-(2-furyl)-4-(2-phenylethyl)-6,7-dihydropyrazolo[1,5-a]pyrazin-5(4H)-yl]-1-oxopropan-2-amine hydrochloride]
- IC50 [1]: ≤ 0.02 mM
- IC50 [2]: ≤ 5 µM
- IC50 ([3]; unit inferred): ≤ 15 µM

SMILES: COc1cc(-c2cc3n(n2)CCN(C(=O)[C@@H](N)CSSC[C@H](N)C(=O)N2CCn4nc(-c5cc(OC)c(OC)c(OC)c5)cc4C2CCc2ccccc2)C3CCc2ccccc2)cc(OC)c1OC (mixture of isomers) [Example 17, (2R)-3-({(2R)-2-amino-3-oxo-3-[(4RS)-4-(2-phenylethyl)-2-(3,4,5-trimethoxyphenyl)-6,7-dihydropyrazolo[1,5-a]pyrazin-5(4H)-yl]propyl}dithio)-1-oxo-1-[(4RS)-4-(2-phenylethyl)-2-(3,4,5-trimethoxyphenyl)-6,7-dihydropyrazolo[1,5-a]pyrazin-5(4H)-yl]propan-2-amine hydrochloride]
- IC50 [1]: ≤ 0.02 mM
- IC50 [2]: ≤ 10 µM
- IC50 ([3]; unit inferred): ≤ 15 µM

SMILES: CC(C)(C)OC(=O)N[C@@H](CSSC[C@H](NC(=O)OC(C)(C)C)C(=O)N1CCn2nc(-c3ccncc3)cc2C1CCc1ccccc1)C(=O)N1CCn2nc(-c3ccncc3)cc2C1CCc1ccccc1 (mixture of isomers) [Example 3, tert-butyl {(1R)-1-[({(2R)-2-[(tert-butoxycarbonyl)amino]-3-oxo-3-[(4RS)-4-(2-phenylethyl)-2-pyridin-4-yl-6,7-dihydropyrazolo[1,5-a]pyrazin-5(4H)-yl]propyl}dithio)methyl]-2-oxo-2-[(4RS)-4-(2-phenylethyl)-2-pyridin-4-yl-6,7-dihydropyrazolo[1,5-a]pyrazin-5(4H)-yl]ethyl}carbamate]
- IC50 [2]: ≤ 10 µM

SMILES: N[C@@H](CSSC[C@H](N)C(=O)N1CCn2nc(-c3ccc(Cl)cc3Cl)cc2C1CCc1ccccc1)C(=O)N1CCn2nc(-c3ccc(Cl)cc3Cl)cc2C1CCc1ccccc1 (mixture of isomers) [Example 22, (2R)-3-({(2R)-2-amino-3-[(4RS)-2-(2,4-dichlorophenyl)-4-(2-phenylethyl)-6,7-dihydropyrazolo[1,5-a]pyrazin-5(4H)-yl]-3-oxopropyl}dithio)-1-[(4RS)-2-(2,4-dichlorophenyl)-4-(2-phenylethyl)-6,7-dihydropyrazolo[1,5-a]pyrazin-5(4H)-yl]-1-oxopropan-2-amine hydrochloride]
- IC50 ([1]; bound given in mM): ≤ 0.01 mM
- IC50 [2]: ≤ 1 µM
- IC50 [3]: ≤ 20 µM

SMILES: CC(C)(C)OC(=O)N[C@@H](CSSC[C@H](NC(=O)OC(C)(C)C)C(=O)N1CCn2nc(-c3ccccc3)cc2[C@@H]1CC1CCCCC1)C(=O)N1CCn2nc(-c3ccccc3)cc2[C@@H]1CC1CCCCC1 [Example 23, tert-butyl {(1R)-1-[({(2R)-2-[(tert-butoxycarbonyl)amino]-3-[(4S)-4-(cyclohexylmethyl)-2-phenyl-6,7-dihydropyrazolo[1,5-a]pyrazin-5(4H)-yl]-3-oxopropyl}dithio)methyl]-2-[(4S)-4-(cyclohexylmethyl)-2-phenyl-6,7-dihydropyrazolo[1,5-a]pyrazin-5(4H)-yl]-2-oxoethyl}carbamate]
- melting point: 106 to 108 °C

SMILES: CC(C)(C)OC(=O)N[C@@H](CSSC[C@H](NC(=O)OC(C)(C)C)C(=O)N1CCn2nc(-c3cccnc3)cc2C1CCc1ccccc1)C(=O)N1CCn2nc(-c3cccnc3)cc2C1CCc1ccccc1 (mixture of isomers) [Example 4, tert-butyl {(1R)-1-[({(2R)-2-[(tert-butoxycarbonyl)amino]-3-oxo-3-[(4RS)-4-(2-phenylethyl)-2-pyridin-3-yl-6,7-dihydropyrazolo[1,5-a]pyrazin-5(4H)-yl]propyl}dithio)methyl]-2-oxo-2-[(4RS)-4-(2-phenylethyl)-2-pyridin-3-yl-6,7-dihydropyrazolo[1,5-a]pyrazin-5(4H)-yl]ethyl}carbamate]
- melting point: 115 to 130 °C

SMILES: N[C@@H](CSSC[C@H](N)C(=O)N1CCn2nc(-c3ccc4c(c3)OCO4)cc2C1CCc1ccccc1)C(=O)N1CCn2nc(-c3ccc4c(c3)OCO4)cc2C1CCc1ccccc1 (mixture of isomers) (as salt: hydrochloride) [Example 16, (2R)-3-({(2R)-2-amino-3-[(4RS)-2-(1,3-benzodioxol-5-yl)-4-(2-phenylethyl)-6,7-dihydropyrazolo[1,5-a]pyrazin-5(4H)-yl]-3-oxopropyl}dithio)-1-[(4RS)-2-(1,3-benzodioxol-5-yl)-4-(2-phenylethyl)-6,7-dihydropyrazolo[1,5-a]pyrazin-5(4H)-yl]-1-oxopropan-2-amine hydrochloride]
- melting point: 221 °C (dec.)

Next, values leading:

- IC50 ([1]; bound given in mM): ≤ 0.01 mM
- IC50 [2]: ≤ 1 µM
- IC50 ([3]; unit inferred): ≤ 15 µM
SMILES: N[C@@H](CSSC[C@H](N)C(=O)N1CCn2nc(-c3ccccc3)cc2C1CCc1ccccc1)C(=O)N1CCn2nc(-c3ccccc3)cc2C1CCc1ccccc1 (mixture of isomers) [Example 13, (2R)-3-({(2R)-2-amino-3-oxo-3-[(4RS)-2-phenyl-4-(2-phenylethyl)-6,7-dihydropyrazolo[1,5-a]pyrazin-5(4H)-yl]propyl}dithio)-1-oxo-1-[(4RS)-2-phenyl-4-(2-phenylethyl)-6,7-dihydropyrazolo[1,5-a]pyrazin-5(4H)-yl]propan-2-amine hydrochloride]

- IC50 ([1]; bound given in mM): ≤ 0.01 mM
- IC50 [2]: ≤ 10 µM
- IC50 ([3]; unit inferred): ≤ 15 µM
SMILES: CCCCCC1c2cc(-c3ccccc3)nn2CCN1C(=O)[C@@H](N)CSSC[C@H](N)C(=O)N1CCn2nc(-c3ccccc3)cc2C1CCCCC (mixture of isomers) [Example 20, (2R)-3-({(2R)-2-amino-3-oxo-3-[(4RS)-4-pentyl-2-phenyl-6,7-dihydropyrazolo[1,5-a]pyrazin-5(4H)-yl]propyl}dithio)-1-oxo-1-[(4RS)-4-pentyl-2-phenyl-6,7-dihydropyrazolo[1,5-a]pyrazin-5(4H)-yl]propan-2-amine hydrochloride]

- IC50 ([1]; bound given in mM): ≤ 0.01 mM
- IC50 [2]: ≤ 1 µM
- IC50 ([3]; unit inferred): ≤ 15 µM
SMILES: N[C@@H](CSSC[C@H](N)C(=O)N1CCn2nc(-c3ccccc3)cc2[C@@H]1CC1CCCCC1)C(=O)N1CCn2nc(-c3ccccc3)cc2[C@@H]1CC1CCCCC1 [Example 24, (2R)-3-({(2R)-2-amino-3-[(4S)-4-(cyclohexylmethyl)-2-phenyl-6,7-dihydropyrazolo[1,5-a]pyrazin-5(4H)-yl]-3-oxopropyl}dithio)-1-[(4S)-4-(cyclohexylmethyl)-2-phenyl-6,7-dihydropyrazolo[1,5-a]pyrazin-5(4H)-yl]-1-oxopropan-2-amine hydrochloride]

- IC50 [1]: ≤ 0.02 mM
- IC50 [2]: ≤ 10 µM
SMILES: N[C@@H](CSSC[C@H](N)C(=O)N1CCn2nc(-c3cccnc3)cc2C1CCc1ccccc1)C(=O)N1CCn2nc(-c3cccnc3)cc2C1CCc1ccccc1 (mixture of isomers) [Example 15, (2R)-3-({(2R)-2-amino-3-oxo-3-[(4RS)-4-(2-phenylethyl)-2-pyridin-3-yl-6,7-dihydropyrazolo[1,5-a]pyrazin-5(4H)-yl]propyl}dithio)-1-oxo-1-[(4RS)-4-(2-phenylethyl)-2-pyridin-3-yl-6,7-dihydropyrazolo[1,5-a]pyrazin-5(4H)-yl]propan-2-amine hydrochloride]

- IC50 [1]: ≤ 0.03 mM
- IC50 [2]: ≤ 10 µM
SMILES: N[C@@H](CSSC[C@H](N)C(=O)N1CCn2nc(-c3ccncc3)cc2C1CCc1ccccc1)C(=O)N1CCn2nc(-c3ccncc3)cc2C1CCc1ccccc1 (mixture of isomers) [Example 14, (2R)-3-({(2R)-2-amino-3-oxo-3-[(4RS)-4-(2-phenylethyl)-2-pyridin-4-yl-6,7-dihydropyrazolo[1,5-a]pyrazin-5(4H)-yl]propyl}dithio)-1-oxo-1-[(4RS)-4-(2-phenylethyl)-2-pyridin-4-yl-6,7-dihydropyrazolo[1,5-a]pyrazin-5(4H)-yl]propan-2-amine hydrochloride]

- melting point: 227 °C (dec.)
SMILES: N[C@@H](CSSC[C@H](N)C(=O)N1CCn2nc(-c3ccncc3)cc2C1CCc1ccccc1)C(=O)N1CCn2nc(-c3ccncc3)cc2C1CCc1ccccc1 (mixture of isomers) (as salt: hydrochloride) [Example 14, (2R)-3-({(2R)-2-amino-3-oxo-3-[(4RS)-4-(2-phenylethyl)-2-pyridin-4-yl-6,7-dihydropyrazolo[1,5-a]pyrazin-5(4H)-yl]propyl}dithio)-1-oxo-1-[(4RS)-4-(2-phenylethyl)-2-pyridin-4-yl-6,7-dihydropyrazolo[1,5-a]pyrazin-5(4H)-yl]propan-2-amine hydrochloride]
